Experimental data as given in PubChem BioAssay AID248 (DTP/NCI, 2004).
Several values for one entry are separate records, joined by “and”; a condition that tells them apart may be missing. Identical values can stand only once. Inconclusive results and toxic doses are left out.

Tested on: L1210 leukemia ip in BDF1 mice, survival T/C
Assay: NCI In Vivo Anticancer Drug Screen. Data for tumor model L1210 Leukemia (intraperitoneal) in B6D2F1 (BDF1) mice
Conditions: endpoint: mean survival time, higher = longer survival
Outline: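 Transplanted-tumor mice were given test agent; controls received vehicle only. Survival readings from the two groups were divided (treated over control).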

In the case of N[C@@H](Cc1ccc(N(CCCl)CCCl)cc1)C(=O)O, the T/C (dose: 0.1 mg/kg/injection, schedule: Q01DX015 (ip), vehicle: carboxymethylcellulose (CMC)) is reported as 101 % of control and 102 % of control, the T/C (dose: 0.13 mg/kg/injection, schedule: Q01DX009 (ip), vehicle: Klucel (hydroxypropylcellulose) (HPC)) is reported as 110 % of control and the T/C (dose: 0.2 mg/kg/injection, schedule: Q01DX015 (ip), vehicle: carboxymethylcellulose (CMC)) is reported as 104 % of control and 111 % of control. The T/C (dose: 0.25 mg/kg/injection, schedule: Q01DX009 (ip), vehicle: Klucel (hydroxypropylcellulose) (HPC)) was 105 % of control and 115 % of control, the T/C (dose: 0.39 mg/kg/injection, schedule: Q01DX001 (ip), vehicle: carboxymethylcellulose (CMC)) was 102 % of control and the T/C (dose: 0.4 mg/kg/injection, schedule: Q01DX015 (ip), vehicle: carboxymethylcellulose (CMC)) was 109 % of control and 117 % of control. For the same compound, the T/C (dose: 0.45 mg/kg/injection, schedule: Q04DX002 (ip), vehicle: Klucel (hydroxypropylcellulose) (HPC)) was 96 % of control, the T/C (dose: 0.5 mg/kg/injection, schedule: Q01DX005 (ip), vehicle: saline) was 111 % of control and the T/C (dose: 0.5 mg/kg/injection, schedule: Q01DX009 (ip), vehicle: Klucel (hydroxypropylcellulose) (HPC)) was 115 % of control and 116 % of control. For the same compound, the T/C (dose: 0.5 mg/kg/injection, schedule: Q01DX009 (ip), vehicle: saline) was 120 % of control, the T/C (dose: 0.5 mg/kg/injection, schedule: Q03DX Z (ip), vehicle: carboxymethylcellulose (CMC)) was 113 % of control and the T/C (dose: 0.5 mg/kg/injection, schedule: Q03HX008 (ip), vehicle: saline) was 114 % of control. The T/C (dose: 0.5 mg/kg/injection, schedule: Q03HX016 (ip), vehicle: saline) was 124 % of control, the T/C (dose: 0.78 mg/kg/injection, schedule: Q01DX001 (ip), vehicle: carboxymethylcellulose (CMC)) was 108 % of control and the T/C (dose: 0.8 mg/kg/injection, schedule: Q01DX015 (ip), vehicle: carboxymethylcellulose (CMC)) was 121 % of control. For the same compound, the T/C (dose: 0.9 mg/kg/injection, schedule: Q04DX002 (ip), vehicle: Klucel (hydroxypropylcellulose) (HPC)) was 104 % of control and 115 % of control, the T/C (dose: 1.0 mg/kg/injection, schedule: Q01DX005 (ip), vehicle: saline) was 123 % of control and the T/C (dose: 1.0 mg/kg/injection, schedule: Q01DX006 (iv), vehicle: carboxymethylcellulose (CMC)) was 107 % of control. The T/C (dose: 1.0 mg/kg/injection, schedule: Q01DX009 (oral), vehicle: saline) was 111 % of control, the T/C (dose: 1.0 mg/kg/injection, schedule: Q01DX Z (im), vehicle: carboxymethylcellulose (CMC)) was 96 % of control and the T/C (dose: 1.0 mg/kg/injection, schedule: Q01DX Z (ip), vehicle: carboxymethylcellulose (CMC)) was 94 % of control. For the same compound, the T/C (dose: 1.0 mg/kg/injection, schedule: Q01DX Z (sc), vehicle: carboxymethylcellulose (CMC)) was 94 % of control, the T/C (dose: 1.0 mg/kg/injection, schedule: Q03HX008 (ip), vehicle: saline) was 119 % of control and the T/C (dose: 1.0 mg/kg/injection, schedule: Q#A X Z (ip), vehicle: carboxymethylcellulose (CMC)) was 94 % of control. For the same compound, the T/C (dose: 1.13 mg/kg/injection, schedule: Q01DX001 (ip), vehicle: carboxymethylcellulose (CMC)) was 111 % of control and 121 % of control, the T/C (dose: 1.56 mg/kg/injection, schedule: Q01DX001 (ip), vehicle: saline) was 104 % of control and 107 % of control and the T/C (dose: 1.6 mg/kg/injection, schedule: Q01DX015 (ip), vehicle: carboxymethylcellulose (CMC)) was 154 % of control. The T/C (dose: 1.8 mg/kg/injection, schedule: Q04DX002 (ip), vehicle: Klucel (hydroxypropylcellulose) (HPC)) was 117 % of control and 118 % of control, the T/C (dose: 2.0 mg/kg/injection, schedule: Q01DX006 (iv), vehicle: carboxymethylcellulose (CMC)) was 110 % of control and the T/C (dose: 2.0 mg/kg/injection, schedule: Q01DX Z (im), vehicle: carboxymethylcellulose (CMC)) was 98 % of control. For the same compound, the T/C (dose: 2.0 mg/kg/injection, schedule: Q01DX Z (ip), vehicle: carboxymethylcellulose (CMC)) was 93 % of control, the T/C (dose: 2.0 mg/kg/injection, schedule: Q01DX Z (oral), vehicle: carboxymethylcellulose (CMC)) was 115 % of control and the T/C (dose: 2.0 mg/kg/injection, schedule: Q01DX Z (sc), vehicle: carboxymethylcellulose (CMC)) was 104 % of control. For the same compound, the T/C (dose: 2.0 mg/kg/injection, schedule: Q03DX Z (ip), vehicle: carboxymethylcellulose (CMC)) was 153 % of control, the T/C (dose: 2.16 mg/kg/injection, schedule: Q04DX003 (ip), vehicle: saline) was 151 % of control and the T/C (dose: 2.37 mg/kg/injection, schedule: Q01DX009 (ip), vehicle: other) was 150 % of control. For the same compound, the T/C (dose: 3.0 mg/kg/injection, schedule: Q03DX Z (ip), vehicle: carboxymethylcellulose (CMC)) was 115 % of control, the T/C (dose: 3.12 mg/kg/injection, schedule: Q01DX001 (ip), vehicle: saline) was 109 % of control and 112 % of control and the T/C (dose: 3.6 mg/kg/injection, schedule: Q03HX024 (ip), vehicle: other) was 104 % of control. The T/C (dose: 4.0 mg/kg/injection, schedule: Q01DX001 (ip), vehicle: saline) was 124 % of control, the T/C (dose: 4.0 mg/kg/injection, schedule: Q01DX001 (sc), vehicle: saline) was 121 % of control and the T/C (dose: 4.0 mg/kg/injection, schedule: Q01DX006 (iv), vehicle: carboxymethylcellulose (CMC)) was 102 % of control. The T/C (dose: 4.0 mg/kg/injection, schedule: Q01DX009 (oral), vehicle: saline) was 151 % of control, the T/C (dose: 4.0 mg/kg/injection, schedule: Q01DX Z (im), vehicle: carboxymethylcellulose (CMC)) was 104 % of control and the T/C (dose: 4.0 mg/kg/injection, schedule: Q01DX Z (ip), vehicle: carboxymethylcellulose (CMC)) was 98 % of control. For the same compound, the T/C (dose: 4.0 mg/kg/injection, schedule: Q01DX Z (oral), vehicle: carboxymethylcellulose (CMC)) was 104 % of control, the T/C (dose: 4.0 mg/kg/injection, schedule: Q01DX Z (sc), vehicle: carboxymethylcellulose (CMC)) was 102 % of control and the T/C (dose: 4.0 mg/kg/injection, schedule: Q03HX024 (ip), vehicle: saline) was 122 % of control. For the same compound, the T/C (dose: 4.0 mg/kg/injection, schedule: Q#A X Z (ip), vehicle: carboxymethylcellulose (CMC)) was 110 % of control, the T/C (dose: 6.0 mg/kg/injection, schedule: Q03DX Z (ip), vehicle: carboxymethylcellulose (CMC)) was 106 % of control and the T/C (dose: 6.25 mg/kg/injection, schedule: Q01DX001 (ip), vehicle: saline) was 120 % of control. For the same compound, the T/C (dose: 7.0 mg/kg/injection, schedule: Q01DX001 (ip), vehicle: carboxymethylcellulose (CMC)) was 110 % of control and 115 % of control, the T/C (dose: 7.0 mg/kg/injection, schedule: Q07DX Z (ip), vehicle: carboxymethylcellulose (CMC)) was 107 % of control and the T/C (dose: 7.5 mg/kg/injection, schedule: Q01DX009 (ip), vehicle: saline) was 100 % of control and 107 % of control. The T/C (dose: 8.0 mg/kg/injection, schedule: Q01DX001 (oral), vehicle: saline) was 123 % of control, the T/C (dose: 8.0 mg/kg/injection, schedule: Q01DX001 (sc), vehicle: saline) was 117 % of control and the T/C (dose: 8.0 mg/kg/injection, schedule: Q01DX005 (ip), vehicle: saline) was 154 % of control. The T/C (dose: 8.0 mg/kg/injection, schedule: Q01DX006 (iv), vehicle: carboxymethylcellulose (CMC)) was 104 % of control, the T/C (dose: 8.0 mg/kg/injection, schedule: Q01DX009 (ip), vehicle: Klucel (hydroxypropylcellulose) (HPC)) was 121 % of control and the T/C (dose: 8.0 mg/kg/injection, schedule: Q01DX009 (ip), vehicle: saline) was 114 % of control. For the same compound, the T/C (dose: 8.0 mg/kg/injection, schedule: Q01DX009 (oral), vehicle: saline) was 112 % of control, the T/C (dose: 8.0 mg/kg/injection, schedule: Q01DX009 (sc), vehicle: saline) was 95 % of control and the T/C (dose: 8.0 mg/kg/injection, schedule: Q01DX Z (im), vehicle: carboxymethylcellulose (CMC)) was 98 % of control. The T/C (dose: 8.0 mg/kg/injection, schedule: Q01DX Z (oral), vehicle: carboxymethylcellulose (CMC)) was 104 % of control, the T/C (dose: 8.0 mg/kg/injection, schedule: Q01DX Z (sc), vehicle: carboxymethylcellulose (CMC)) was 96 % of control and the T/C (dose: 12.0 mg/kg/injection, schedule: Q03DX Z (ip), vehicle: carboxymethylcellulose (CMC)) was 105 % of control. The T/C (dose: 12.5 mg/kg/injection, schedule: Q01DX Z (ip), vehicle: carboxymethylcellulose (CMC)) was 102 % of control, the T/C (dose: 14.0 mg/kg/injection, schedule: Q01DX001 (ip), vehicle: carboxymethylcellulose (CMC)) was 115 % of control and 117 % of control and the T/C (dose: 14.0 mg/kg/injection, schedule: Q07DX Z (ip), vehicle: carboxymethylcellulose (CMC)) was 98 % of control. The T/C (dose: 16.0 mg/kg/injection, schedule: Q01DX Z (ip), vehicle: carboxymethylcellulose (CMC)) was 106 % of control, the T/C (dose: 16.0 mg/kg/injection, schedule: Q01DX Z (oral), vehicle: carboxymethylcellulose (CMC)) was 102 % of control and the T/C (dose: 16.7 mg/kg/injection, schedule: Q01DX001 (ip), vehicle: saline) was 123 % of control. The T/C (dose: 24.0 mg/kg/injection, schedule: Q03DX Z (ip), vehicle: carboxymethylcellulose (CMC)) was 105 % of control, the T/C (dose: 25.0 mg/kg/injection, schedule: Q01DX001 (ip), vehicle: saline) was 154 % of control and the T/C (dose: 28.0 mg/kg/injection, schedule: Q01DX001 (ip), vehicle: carboxymethylcellulose (CMC)) was 107 % of control. The T/C (dose: 28.0 mg/kg/injection, schedule: Q07DX Z (ip), vehicle: carboxymethylcellulose (CMC)) was 94 % of control, the T/C (dose: 29.0 mg/kg/injection, schedule: Q04DX003 (ip), vehicle: other) was 95 % of control and the T/C (dose: 30.0 mg/kg/injection, schedule: Q01DX001 (ip), vehicle: carboxymethylcellulose (CMC)) was 153 % of control. For the same compound, the T/C (dose: 32.0 mg/kg/injection, schedule: Q01DX001 (ip), vehicle: saline) was 121 % of control, the T/C (dose: 32.0 mg/kg/injection, schedule: Q01DX001 (oral), vehicle: saline) was 93 % of control and the T/C (dose: 32.0 mg/kg/injection, schedule: Q01DX Z (oral), vehicle: carboxymethylcellulose (CMC)) was 104 % of control. The T/C (dose: 56.0 mg/kg/injection, schedule: Q01DX001 (ip), vehicle: carboxymethylcellulose (CMC)) was 107 % of control and 117 % of control and the T/C (dose: 56.0 mg/kg/injection, schedule: Q07DX Z (ip), vehicle: carboxymethylcellulose (CMC)) was 96 % of control.
